Measured values reported in patent US10479770B2, “Phosphatidylinositol 3-kinase inhibitors” (Gilead Sciences, Inc., priority 2016, dated 2019).

Biological target: T1, PI3Kβ (Homo sapiens, UniProt P42338)
T1 construct: made in house
Assay: TR-FRET enzymatic activity assay against PI3K isoforms
Type: biochemical
Details: 2×Km ATP, 2 μM PIP2, 30 minutes at 25° C., recombinant heterodimeric PI3Kβ 25-50 pM, read-out: IC50-PIP-Beta
Procedure: The compounds of formula (I) were characterized for their enzymatic activity against the PI3K isoforms. The activities were measured using a time-resolved fluorescence resonance energy transfer (TR-FRET) assay. TR-FRET monitored the formation of 3,4,5-inositol triphosphate molecule that competed with fluorescently labeled PIPS for binding to the GRP-1 pleckstrin homology domain protein.
Class I PI3K isoforms were expressed and purified as heterodimeric recombinant proteins. All assay reagents and buffers for the TR-FRET assay were purchased from Millipore. […] The compounds were added to the assay solution and incubated for 30 minutes at 25° C. The reactions were terminated with a final concentration of 10 mM EDTA, 10 nM labeled-PIPS, and 35 nM Europium labeled GRP-1 detector protein before reading TR-FRET on an Envision plate reader (Ex: 340 nm; Em: 615/665 nm; 100 μs delay and 500 μs read window).
The results were normalized based on positive (1 μM wortmanin) and negative (DMSO) controls, and the IC50 values for PI3K α, β, δ, and γ were calculated from the fit of the dose-response curves to a four-parameter equation. These assays generally produced results within 3-fold of the reported mean.

T1 sequence (P42338 whole entry): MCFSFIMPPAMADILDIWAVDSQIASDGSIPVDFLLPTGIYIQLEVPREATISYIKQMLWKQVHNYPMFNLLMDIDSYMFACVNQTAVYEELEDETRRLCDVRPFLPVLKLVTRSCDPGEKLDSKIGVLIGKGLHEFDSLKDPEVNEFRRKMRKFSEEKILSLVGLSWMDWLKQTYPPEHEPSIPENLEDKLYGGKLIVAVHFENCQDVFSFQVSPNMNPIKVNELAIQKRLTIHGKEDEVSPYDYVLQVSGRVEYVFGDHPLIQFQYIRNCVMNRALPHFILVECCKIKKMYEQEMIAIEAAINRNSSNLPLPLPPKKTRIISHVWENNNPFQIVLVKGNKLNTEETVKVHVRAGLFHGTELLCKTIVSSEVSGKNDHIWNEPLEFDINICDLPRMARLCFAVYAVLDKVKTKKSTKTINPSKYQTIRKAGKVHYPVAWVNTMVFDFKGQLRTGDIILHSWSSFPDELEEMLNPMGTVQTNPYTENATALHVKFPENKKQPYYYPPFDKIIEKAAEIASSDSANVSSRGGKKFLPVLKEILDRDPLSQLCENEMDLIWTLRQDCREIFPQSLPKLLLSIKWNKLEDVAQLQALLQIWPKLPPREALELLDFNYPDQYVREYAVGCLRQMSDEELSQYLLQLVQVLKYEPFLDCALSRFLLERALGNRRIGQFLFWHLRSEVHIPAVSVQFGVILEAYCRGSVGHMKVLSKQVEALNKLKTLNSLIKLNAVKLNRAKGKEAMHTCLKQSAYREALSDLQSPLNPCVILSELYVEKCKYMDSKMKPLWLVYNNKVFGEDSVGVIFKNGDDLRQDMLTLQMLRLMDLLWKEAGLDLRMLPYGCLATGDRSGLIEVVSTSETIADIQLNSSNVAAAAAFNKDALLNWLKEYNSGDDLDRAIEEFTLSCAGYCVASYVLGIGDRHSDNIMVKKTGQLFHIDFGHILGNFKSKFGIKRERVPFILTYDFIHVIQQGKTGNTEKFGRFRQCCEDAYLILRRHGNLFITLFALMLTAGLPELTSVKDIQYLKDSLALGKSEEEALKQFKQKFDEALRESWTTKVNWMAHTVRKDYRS
T1 sequence (P27986 whole entry partner): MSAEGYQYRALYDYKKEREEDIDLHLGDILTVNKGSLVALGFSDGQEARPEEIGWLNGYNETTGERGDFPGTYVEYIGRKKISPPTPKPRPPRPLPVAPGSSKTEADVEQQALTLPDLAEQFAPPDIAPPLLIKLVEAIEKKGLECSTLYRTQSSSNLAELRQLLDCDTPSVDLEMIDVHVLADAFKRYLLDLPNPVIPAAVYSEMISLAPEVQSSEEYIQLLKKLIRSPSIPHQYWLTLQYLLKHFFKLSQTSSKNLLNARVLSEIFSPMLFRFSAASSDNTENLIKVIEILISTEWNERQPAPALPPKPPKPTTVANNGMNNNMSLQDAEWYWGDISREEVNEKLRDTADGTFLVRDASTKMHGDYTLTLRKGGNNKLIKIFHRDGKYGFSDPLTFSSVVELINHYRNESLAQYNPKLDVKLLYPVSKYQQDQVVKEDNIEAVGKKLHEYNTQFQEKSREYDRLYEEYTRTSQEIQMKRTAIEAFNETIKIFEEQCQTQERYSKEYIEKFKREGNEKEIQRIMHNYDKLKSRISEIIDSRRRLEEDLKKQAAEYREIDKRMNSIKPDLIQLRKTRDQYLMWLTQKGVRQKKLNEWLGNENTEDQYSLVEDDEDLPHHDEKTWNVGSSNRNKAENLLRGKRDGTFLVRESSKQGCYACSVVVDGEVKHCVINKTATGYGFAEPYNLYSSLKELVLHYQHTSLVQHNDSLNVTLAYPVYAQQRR

Structure (SMILES): CCCc1nc2c(-c3nnc[nH]3)cc(N3CCOCC3)cc2n1-c1cccc2c(F)cccc12 (single isomer, unassigned) [Compound 6-2, 4-[3-(5-fluoronaphthalen-1-yl)-2-propyl-7-(4H-1,2,4-triazol-3-yl)benzimidazol-5-yl]morpholine]
- IC50: 0.003 µM

Structure (SMILES): CCCc1nc2c(-c3nnc[nH]3)cc(N3CCOCC3)cc2n1-c1cccc2c(F)cccc12 (single isomer, unassigned) [Compound 6-1, 4-[3-(5-fluoronaphthalen-1-yl)-2-propyl-7-(4H-1,2,4-triazol-3-yl)benzimidazol-5-yl]morpholine]
- IC50: 0.042 µM

Structure (SMILES): Cc1nnc(-c2cc(N3CCOCC3)cc3c2nc(C)n3-c2cc3ccccc3cn2)[nH]1 [Compound 5-15, 4-(1-(isoquinolin-3-yl)-2-methyl-4-(5-methyl-4H-1,2,4-triazol-3-yl)-1H-benzo[d]imidazol-6-yl)morpholine]
- IC50: 3.4 µM

Structure (SMILES): Cc1nc2c(C(N)=O)cc(N3CCOCC3)cc2n1-c1cnc2c(Cl)cccc2c1 [Compound 4-2, 1-(8-chloroquinolin-3-yl)-2-methyl-6-morpholino-1H-benzo[d]imidazole-4-carboxamide]
- IC50: 2.3 µM

Structure (SMILES): Cc1nc2c(-c3nnc[nH]3)cc(N3CCOCC3)cc2n1-c1cnc2ccccc2c1 [Compound 5-6, 4-(2-methyl-1-(quinolin-3-yl)-4-(4H-1,2,4-triazol-3-yl)-1H-benzo[d]imidazol-6-yl)morpholine]
- IC50: 0.72 µM

Structure (SMILES): Cc1nnc(-c2cc(N3CCOCC3)cc3c2nc(C)n3-c2ccc(F)c3ccccc23)[nH]1 [Compound 5-2, 4-[3-(4-fluoronaphthalen-1-yl)-2-methyl-7-(5-methyl-4H-1,2,4-triazol-3-yl)benzimidazol-5-yl]morpholine]
- IC50: 0.043 µM

Structure (SMILES): Cc1nc2c(-c3nnc[nH]3)cc(N3CCOCC3)cc2n1-c1cnc2cccc(Cl)c2c1 [Compound 5-8, 4-(1-(5-chloroquinolin-3-yl)-2-methyl-4-(4H-1,2,4-triazol-3-yl)-1H-benzo[d]imidazol-6-yl)morpholine]
- IC50: 0.028 µM

Structure (SMILES): Cc1nc2c(-c3nnc[nH]3)cc(N3CCOCC3)cc2n1-c1ccc(F)c2ccccc12 [Compound 5-1, 4-(1-(4-fluoronaphthalen-1-yl)-2-methyl-4-(4H-1,2,4-triazol-3-yl)-1H-benzo[d]imidazol-6-yl)morpholine]
- IC50: 0.009 µM

Structure (SMILES): Cc1nc2c(-c3nnc[nH]3)cc(N3CCOCC3)cc2n1-c1cnc2c(Cl)cccc2c1 [Compound 5-7, 4-(1-(8-chloroquinolin-3-yl)-2-methyl-4-(4H-1,2,4-triazol-3-yl)-H-benzo[d]imidazol-6-yl)morpholine]
- IC50: 0.19 µM

Structure (SMILES): Cc1nc2c(C(N)=O)cc(N3CCOCC3)cc2n1-c1ccc(F)c2ccccc12 [Compound 4-1, 1-(4-fluoronaphthalen-1-yl)-2-methyl-6-morpholino-1H-benzo[d]imidazole-4-carboxamide]
- IC50: 0.087 µM

Structure (SMILES): Cc1nc2c(C(=O)O)cc(N3CCOCC3)cc2n1-c1cccc2ccccc12 [Compound 3-2, 2-methyl-6-morpholin-4-yl-l-naphthalen-1-ylbenzimidazole-4-carboxylic acid]
- IC50: 1.8 µM

Structure (SMILES): Cc1nc2c(C(N)=O)cc(N3CCOCC3)cc2n1-c1cccc2c(F)cccc12 [Compound 4-4, 1-(5-fluoronaphthalen-1-yl)-2-methyl-6-morpholin-4-ylbenzimidazole-4-carboxamide]
- IC50: 0.013 µM

Structure (SMILES): CCOC(=O)c1nc2c(C(=O)OC)cc(N3CCOCC3)cc2n1-c1cccc2ccccc12 [Compound 2-3, 2-O-ethyl 4-O-methyl 6-morpholin-4-yl-1-naphthalen-1-ylbenzimidazole-2,4-dicarboxylate]
- IC50: 0.7 µM

Structure (SMILES): O=C(O)c1cc(N2CCOCC2)cc2c1ncn2-c1cccc2ccccc12 [Compound 3-1, 6-morpholin-4-yl-1-naphthalen-1-ylbenzimidazole-4-carboxylic acid]
- IC50: > 10 µM

Structure (SMILES): Fc1cccc2c(-n3cnc4c(-c5nnc[nH]5)cc(N5CCOCC5)cc43)cccc12 [Compound 5-12, 4-[3-(5-fluoronaphthalen-1-yl)-7-(4H-1,2,4-triazol-3-yl)benzimidazol-5-yl]morpholine]
- IC50: 0.002 µM

Structure (SMILES): Cc1nc2c(-c3nnc[nH]3)cc(N3CCOCC3)cc2n1-c1cnc2cc(Cl)ccc2c1 [Compound 5-5, 4-(1-(7-chloroquinolin-3-yl)-2-methyl-4-(4H-1,2,4-triazol-3-yl)-1H-benzo[d]imidazol-6-yl)morpholine]
- IC50: 1.2 µM

Structure (SMILES): Cc1nc2c(-c3nnc[nH]3)cc(N3CCOCC3)cc2n1-c1ccc2ccccc2c1 [Compound 5-10, 4-(2-methyl-1-(naphthalen-2-yl)-4-(4H-1,2,4-triazol-3-yl)-1H-benzo[d]imidazol-6-yl)morpholine]
- IC50: 0.038 µM

Structure (SMILES): COC(=O)c1cc(N2CCOCC2)cc2c1nc(C)n2-c1cccc2ccccc12 [Compound 2-1, methyl 1-(naphthalen-1-yl)-2-methyl-6-morpholino-1H-benzo[d]imidazole-4-carboxylate]
- IC50: 0.14 µM

Structure (SMILES): Cc1nc2c(-c3nnc[nH]3)cc(N3CCOCC3)cc2n1-c1cccc2c(F)cccc12 [Compound 5-13, 4-[3-(5-fluoronaphthalen-1-yl)-2-methyl-7-(4H-1,2,4-triazol-3-yl)benzimidazol-5-yl]morpholine]
- IC50: 0.005 µM

Structure (SMILES): CCCc1nc2c(-c3nnc[nH]3)cc(N3CCOCC3)cc2n1-c1cccc2c(F)cccc12 [Compound 5-11, 4-[3-(5-fluoronaphthalen-1-yl)-2-propyl-7-(4H-1,2,4-triazol-3-yl)benzimidazol-5-yl]morpholine]
- IC50: 0.006 µM

Structure (SMILES): Cc1nc2c(-c3nnc[nH]3)cc(N3CCOCC3)cc2n1-c1cnc2ccc(Cl)cc2c1 [Compound 5-3, 4-(1-(6-chloroquinolin-3-yl)-2-methyl-4-(4H-1,2,4-triazol-3-yl)-1H-benzo[d]imidazol-6-yl)morpholine]
- IC50: 4.2 µM

Structure (SMILES): CCc1nc2c(-c3nnc[nH]3)cc(N3CCOCC3)cc2n1-c1cnc2ccccc2c1 [Compound 5-4, 4-(2-ethyl-1-(quinolin-3-yl)-4-(4H-1,2,4-triazol-3-yl)-lH-benzo[d]imidazol-6-yl)morpholine]
- IC50: 1.2 µM

Structure (SMILES): Cc1nc2c(C(N)=O)cc(N3CCOCC3)cc2n1-c1cnc2cccc(Cl)c2c1 [Compound 4-3, 1-(5-chloroquinolin-3-yl)-2-methyl-6-morpholino-lH-benzo[d]imidazole-4-carboxamide]
- IC50: 0.39 µM

Structure (SMILES): COC(=O)c1cc(N2CCOCC2)cc2c1ncn2-c1cccc2ccccc12 [Compound 2-2, methyl 6-morpholin-4-yl-1-naphthalen-1-ylbenzimidazole-4-carboxylate]
- IC50: 0.23 µM

Structure (SMILES): CCc1nc2c(-c3nnc[nH]3)cc(N3CCOCC3)cc2n1-c1ccc2ccccc2n1 [Compound 5-9, 4-(2-ethyl-1-(quinolin-2-yl)-4-(4H-1,2,4-triazol-3-yl)-1H-benzo[d]imidazol-6-yl)morpholine]
- IC50: 0.22 µM

Structure (SMILES): Cc1nc2c(-c3nnc[nH]3)cc(N3CCOCC3)cc2n1-c1cc2ccccc2cn1 [Compound 5-14, 4-(1-(isoquinolin-3-yl)-2-methyl-4-(4H-1,2,4-triazol-3-yl)-1H-benzo[d]imidazol-6-yl)morpholine]
- IC50: 0.58 µM
